Drawing on article doi:10.1101/2025.03.24.644576v1 (biorxiv, 2025), this text covers EC50 for one molecule.

Assay [1] has as its target T1, AmRDL receptor (Apis mellifera, UniProt A0A8U0Y4W2, F191A).
T1 sequence (A0A8U0Y4W2 19-476 F191A): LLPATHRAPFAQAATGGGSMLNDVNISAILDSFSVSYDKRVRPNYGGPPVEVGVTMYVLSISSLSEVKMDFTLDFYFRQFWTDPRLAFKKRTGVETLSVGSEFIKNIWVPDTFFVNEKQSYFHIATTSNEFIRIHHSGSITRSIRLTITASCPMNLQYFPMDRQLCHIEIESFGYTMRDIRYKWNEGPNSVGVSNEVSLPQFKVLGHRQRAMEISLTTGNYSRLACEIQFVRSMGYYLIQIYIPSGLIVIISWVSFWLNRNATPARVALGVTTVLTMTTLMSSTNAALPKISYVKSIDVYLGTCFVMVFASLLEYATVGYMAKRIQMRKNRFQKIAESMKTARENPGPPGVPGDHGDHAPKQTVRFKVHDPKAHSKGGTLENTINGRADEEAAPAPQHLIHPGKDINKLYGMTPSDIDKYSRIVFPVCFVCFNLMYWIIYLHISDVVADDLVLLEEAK
The experiment in a line: two-electrode voltage clamp, Xenopus oocytes. The format is cell-based. A general note: Two-electrode voltage clamp holds a large cell at a set potential and records current.

In assay [2] the target is T2, AmRDL receptor (Apis mellifera, UniProt A0A8U0Y4W2).
T2 sequence (A0A8U0Y4W2 19-476): T1 sequence (A0A8U0Y4W2 19-476 F191A)
Put plainly: two-electrode voltage clamp, Xenopus oocytes. The format is cell-based.

Turning to `NCCCC(=O)O` [GABA], the EC50 on AmRDL receptor [1] is 1000 µM; on AmRDL receptor [2], 10 µM.

Broadly, the EC50 is the midpoint of the concentration-response curve. Read a low EC50 as a more potent agent.
